Each structure is given as a SMILES string.

With `COC(=O)c1ccc(C#Cc2ccccc2F)o1`, the melting point (commonly the temperature of the solid-liquid transition) is 106 to 108 °C.

Consider `Cc1ccc(-n2c(-c3cc(-c4ccc(S(C)(=O)=O)cc4)c(N4CCOCC4)s3)nc3ccccc3c2=O)cc1`, for which the melting point fell in the range of 265 to 268 °C.

Molecule `CCCCc1ccc(CNC(=O)OC(C)(C)C)c(=O)n1Cc1ccc(-c2ccccc2-c2nnn[nH]2)cc1` had a melting point of 105 °C.

`CC1=CC(COC(c2ccccc2)(c2ccccc2)c2ccccc2)O[C@@H]1c1coc(C#N)c1N` (some centres undefined) displayed a melting point of 68 °C.

With `CC(=O)c1c(C)sc(-c2ccncc2)c1C`, the melting point lay in the range of 80 to 81 °C.

As to `COc1ccc(C=CC(=O)O)cc1-c1cc2c(cc1OCCCCCCCC(N)=O)C(C)(C)CCC2(C)C`, the melting point is 132 to 134 °C.

In turn, `COc1cc2ncc(N[C@H]3CC[C@H](C(=O)OC)CC3)nc2cc1OC` had a melting point of 68 to 80 °C.

`COC(=O)C[C@H](O)C[C@H](O)C=Cc1c(-c2ccc(F)cc2)c(-c2ccc(F)cc2)c(C(=O)Nc2ccc(S(N)(=O)=O)cc2)n1C(C)C` displayed a melting point of 208 to 210 °C.

With `CC(=O)c1ccc(S(=O)(=O)N2CCCC2c2ccc(F)cc2)cc1` (racemic), the melting point is 148 °C.

As to `O=C(O)/C=C1\CCc2c(F)cc(Cl)cc21`, the melting point lay within 254 to 256 °C.

`CC(=O)N1CC(=O)N(CCc2ccccc2)C(=O)C1`: the melting point is 130 °C.

The molecule `CC(=O)N1CCC2(CC1)Cc1ccccc1O2` gave a melting point of 94 to 97 °C.

Molecule `CCCCCCCN(CCCCCSc1nc2c([nH]1)CCCC2)C(=O)Nc1ccc(F)cc1F` came in with a melting point of 98 to 100 °C.

For `Cc1ncc(CN2CCc3ccc(OCc4ccccc4)cc3C2)c(N)n1`, the melting point is 151 to 153 °C.

Consider `CCCCCCCCCCCC(=O)N[C@H]1CCCNC(=O)C1`, for which the melting point lay within 93 to 94 °C.

`O=C(O)c1ccccc1N1CCN(CC(O)COc2cccc3ccccc23)CC1` (centres undefined) came in with a melting point of 215 to 218 °C.

Turning to `Cc1ccc(Sc2cncc3sc(C=NOCC(=O)O)cc23)cc1`, the melting point is 227 to 230 °C.

As for `Cn1cc(C=O)c(=O)c2cc(C(F)(F)F)ccc21`, the melting point worked out at 205 °C.

For `CC(C)=C1C(=O)N(c2ccc(O)cc2)C(=O)/C1=C(\C)c1cc(C)oc1C`, the melting point was in the range of 206 to 208 °C.

As to `O=S(c1ccccc1)C1O[C@H](COCc2ccccc2)[C@@H](OCc2ccccc2)[C@H](OCc2ccccc2)[C@H]1OCc1ccccc1` (some centres undefined), the melting point lay in the range of 120 to 122 °C.

With `Cc1c(-c2cc(C(C)(C)C)c(O)c(C(C)(C)C)c2)nc2n1CCS2`, the melting point was in the range of 258 to 261 °C.

As to `CC1=C(C#N)C(c2ccccc2C(F)(F)F)c2c(ccnc2OC(C)C)N1` (centres undefined), the melting point was in the range of 207 to 209 °C.

Take `CNC(=O)c1ccc(N2CCN(Cc3cc(C)c4c(c3)NC(=O)C(C)O4)CC2)c(C)c1` (centres undefined): the melting point is 113 to 120 °C.

With `Cc1cccc(C(NCC(=O)Nc2c(C(C)C)cccc2C(C)C)c2ccccc2)c1` (centres undefined), the melting point was in the range of 119 to 120 °C.

The molecule `CC(C)(C)C(NC(=O)c1ccc(Cl)cc1)NS(=O)(=O)Nc1cccnc1` (centres undefined) displayed a melting point of 166 to 167 °C.

The molecule `O=C(NC1C2CC3CC(C2)CC1C3)c1cc(-c2ccc(Cl)cc2)n(-c2ccc(Cl)cc2Cl)n1` (centres undefined) showed a melting point of 203 °C.

Regarding `O=C(NCc1ccc(O)cc1)c1[nH]c2ccc(Cl)cc2c1S(=O)(=O)c1ccccc1`, the melting point lay in the range of 249 to 250 °C.

For the molecule `CCOC(=O)C(C(=O)OCC)c1c(Cl)cnc2c([N+](=O)[O-])cccc12`, the melting point was determined as 102 °C.

Take `CC(C)c1ccc2c(O)c(C(=O)Nc3ccc(OCC(C)(C)C)c(C#N)c3)sc2n1`: the melting point lay within 211 to 212 °C.

As to `CNC(=S)Nc1ccccc1N1CCCC1`, the melting point was in the range of 125 to 126 °C.

Molecule `CC(=O)ON(C)C(=O)/C=C/c1ccc(-n2c(C)ccc2C)cc1` showed a melting point of 120 to 121 °C.

As to `Cc1c(-c2ccc(OCc3ccccc3)cc2)n(Cc2ccc(OCCN3C[C@@H]4CC[C@H]3C4)cc2)c2ccc(OCc3ccccc3)cc12`, the melting point is 95 to 100 °C.

In turn, `CC(C)P1(=O)c2ccccc2CN1c1ccc(Cl)cc1` (centres undefined) yielded a melting point of 172 to 174 °C.

In turn, `CS(=O)c1coc2cc(NS(C)(=O)=O)c(Oc3ccccc3)cc2c1=O` (centres undefined) came in with a melting point of over 250 °C.

As for `CN(Cc1cc2c3c(c1)c(=O)c(C(=O)NCc1ccc(F)cc1)cn3CC(=O)N2C)C[C@@H](O)c1cccs1`, the melting point lay within 113 to 115 °C.

`CC(=O)OCC1OC(n2cc(C(Cl)=CI)c(=O)[nH]c2=O)C(OC(C)=O)C1OC(C)=O` (centres undefined) showed a melting point of 85 to 87 °C.

In turn, `CC(=O)NCC1CN(c2ccc(-c3cccc(CF)c3)c(F)c2)C(=O)O1` (centres undefined) gave a melting point of 120 to 122 °C.

`O=C1CN2Cc3ccc(OCCCC(=O)N(CCO)CCCCC4CCCCC4)cc3N=C2N1` gave a melting point of 113 to 114 °C.

As to `NS(=O)(=O)C(F)(F)c1nnc(C(F)(F)S(N)(=O)=O)o1`, the melting point lay in the range of 171 to 172 °C.

The molecule `O=C1NCN2c3ccc(Cl)cc3[C@H]3CCN4CCC[C@H]1[C@H]4[C@H]32` (racemic) yielded a melting point of over 250 °C.

`CCN(CC)C(=O)c1ccc(S(=O)(=O)N(CC)CC)o1`: the melting point stood at 56.4 °C.

In turn, `CCOC(=O)c1c(CCc2ccc(OC)cc2)nc2c(c1-c1ccc(C(=O)NCc3ccccn3)cc1)C(=O)N1CCC[C@H]1C2` came in with a melting point of over 200 °C.

Regarding `CN(C(CCN1C(=O)CNC1=O)C(=O)NO)S(=O)(=O)c1ccc(Oc2ccccc2)cc1` (centres undefined), the melting point lay in the range of 146 to 147 °C.

`NS(=O)(=O)c1cc(Cl)c(Cl)cc1OC(F)(F)F`: the melting point is 181 to 185 °C.

On to `Nc1cc([N+](=O)[O-])c2c(c1N)CCCC2`, for which the melting point is 181 to 182 °C.

Molecule `CN(C)c1ccc(CCBr)cc1` yielded a melting point of 45 to 46 °C.

Molecule `COC(=O)C1C=CCN2C(=O)C(C)(CCOC3CCCCO3)C(=O)N12` (centres undefined) yielded a melting point of 128 °C.

`COc1cc(Cl)cc2c1OC(C)(COS(=O)(=O)c1ccc(C)cc1)C2` (centres undefined) returned a melting point of 113 to 115 °C.

On to `CCOC(=O)C1=C(C)Nc2ccnc(OC(C)C)c2C1c1ccccc1Cl` (centres undefined), for which the melting point was in the range of 135 to 136 °C.

Molecule `CC(=O)Nc1ccc([N+](=O)[O-])cc1OCC(O)CN1C(=O)CCC1=O` (centres undefined) displayed a melting point of 157 °C.

As for `Cc1cn(NCCCc2ccncc2F)c2ccc(OC(=O)NN3CCc4ccccc4C3)cc12`, the melting point is 157 to 160 °C.

`Cc1nnsc1CS(=O)(=O)c1ccccc1` registered a melting point of 118 °C.

Turning to `CCOC(=O)C(=CNc1ccc(OC)c(F)c1)C(=O)OCC`, the melting point was determined as 63 °C.

Molecule `Nc1ccc(S(=O)(=O)CCO)cc1C(=O)O` showed a melting point of 164 to 167 °C.

Consider `O=C(O)[C@@H]1C[C@@H](O)CN1C(=O)OCc1ccc([N+](=O)[O-])cc1`, for which the melting point was 136 to 137 °C.

`CC(Cl)=CCOc1ccc(C(=O)O)nc1`: the melting point lay within 96 to 98 °C.

The molecule `CCCCCCCCCCCCCc1c[nH]c(C(=O)O)c1` displayed a melting point of 150 to 151 °C.

As for `O=Cc1cccc(-c2ccoc2)n1`, the melting point lay in the range of 59 to 61 °C.

As for `c1cncc(C2=NOC(C3CC3)(N3CCCC3)C2)c1` (centres undefined), the melting point was in the range of 90 to 92 °C.

`CC(C)CC(C(=O)O)C(=O)O` had a melting point of 102 to 105 °C.

The molecule `CC1(c2cc(NC(=O)Nc3ccc(OCCN4CCOCC4)c4ccccc34)n(-c3ccccc3)n2)CCCCC1` gave a melting point of 147 to 149 °C.

In the case of `COC(=O)c1ccccc1S(=O)(=O)NC(=O)Nc1ncc(C)n(C)c1=O`, the melting point is 192 to 193 °C.

The molecule `COc1nc(C)c(C)nc1NC(=O)N1CCN(c2c(C)c(C)cc(C)c2C)CC1` registered a melting point of 202 to 204 °C.

The molecule `Cc1ccc2cc(C)[nH]c2c1` registered a melting point of 74 to 76 °C.

`COc1ccc(Cl)cc1C(=O)NCCc1ccc(CCCCCCCCCC(=O)O)cc1` had a melting point of 97 to 100 °C.

`CCOC(=O)c1nn(-c2cccc(C(F)(F)F)c2)c2c1CCCC2` gave a melting point of 77 to 78 °C.

Regarding `CCOC(=O)c1sc(NC(=O)NN)nc1C`, the melting point fell in the range of 225 to 230 °C.

Take `Cc1ccccc1NS(=O)(=O)c1ccc(Br)cc1`: the melting point was determined as 114 °C.

As for `COc1ccc(C#N)cc1C=NO`, the melting point fell in the range of 142 to 144 °C.

`CC(=O)c1c(CBr)c(CBr)c(C(C)=O)c2c1C(=O)c1ccccc1C2=O` returned a melting point of 225 to 227 °C.

As for `C=CCOc1ccc(CC(=O)NCC(=O)N[C@@H](Cc2c[nH]cn2)C(=O)OC)cc1Cl`, the melting point was in the range of 147 to 150 °C.

The molecule `O=C1c2cc(F)ccc2-n2c1nc1cccc(F)c1c2=O` had a melting point of 323 to 325 °C.

`COc1ccc(S(=O)(=O)Oc2ccc(N3CCNC3=O)cc2)cc1` came in with a melting point of 126 to 127 °C.

`CCCCCCCc1ccc(C(=O)CCC(=O)O)cc1` showed a melting point of 101 to 104 °C.

`CCOC(=O)c1cn(C2CC2)c2c(F)c(NCCO)c(F)c(F)c2c1=O` came in with a melting point of 193 to 195 °C.

On to `CNC(=O)[C@H]1O[C@@H]1c1ccc(C)cc1`, for which the melting point lay in the range of 152 to 153 °C.

As for `Cc1cccc(NC(=O)NCC(=O)N2[C@@H](c3ccccc3F)SC[C@H]2C(=O)OC(C)(C)C)c1`, the melting point was 107 °C.

`COc1ccc(C(=O)Nc2ccccc2)c(C)c1` returned a melting point of 149 to 150 °C.

With `CCOC(=O)NNC(=S)NC`, the melting point came out at 117 °C.

`CCCC(CCNC(=O)CC#N)NC(=O)CC#N` (centres undefined) yielded a melting point of 141 °C.

As for `O=S(=O)(Cl)c1ccc2oc(Br)c(CBr)c2c1`, the melting point was 129 to 130 °C.

For `O=C(/C=C/[C@@H]1[C@H]2CC(=O)O[C@H]2C[C@H]1OC(=O)c1ccc(-c2ccccc2)cc1)COc1cccc(C(F)(F)F)c1`, the melting point lay in the range of 115 to 116 °C.

`CCCC#Cc1cnc(-c2ccc(C(F)(F)F)cc2)nc1` returned a melting point of 140 °C.

Molecule `COC(OC)c1cnc(-c2ccccc2)[nH]1` had a melting point of 158 to 160 °C.

The molecule `C#CCOCCCCCCCCCC(=O)O` showed a melting point of under 30 °C.

As to `CCOC(=O)Cc1ccc(NC(=O)Nc2ccccc2)cc1`, the melting point lay in the range of 153 to 155 °C.

In the case of `CCCCC/C(=C\C=C\C(=O)Oc1ccc([N+](=O)[O-])cc1)c1ccc(OC)cc1`, the melting point fell in the range of 46 to 47 °C.

With `Nc1nc(NCCC23CC4CC(CC(C4)C2)C3)nc2c1ncn2C1OC(CO)C(O)C1O` (centres undefined), the melting point fell in the range of 145 to 147 °C.

`Cc1ccc(-c2nc(CCOc3ccc(CN(O)C(N)=O)cc3)c(C)o2)cc1` came in with a melting point of 145 to 146 °C.
